Measured values: PubChem BioAssay AID743417 (Broad Institute, 2014)
Records with an inconclusive call do not appear. Activity calls are given as the source filed them.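 Rule for the calls: active = compounds lowering the luciferase signal with a fitted half-maximal dose at most twice their top valid dose (cut at about 30 µM in these data); inconclusive = flat fits with moderate signal loss, or poor fits; inactive = the rest.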

Tested on: Clone20 osteoblast Shn3 3'UTR firefly luciferase, 24 h
Experiment: Schnurri-3 3'UTR-luciferase signal suppressors – cell-based, Clone20 osteoblasts, luminescence, dry powder, set 2, dose response (AID 743417)

Row | Structure (SMILES) | AC50
1 | CCCCCn1c(=O)c(C(=O)Nc2cnccn2)c(O)c2ccccc21 | 1.54 µM
2 | COc1cc(CC(=O)Nc2nc(-c3ccc(F)c(F)c3)cs2)cc(OC)c1OC | 3.92 µM
3 | Cc1cccc(CS(=O)(=O)c2ncc(Cl)c(C(=O)Nc3ccc(F)cc3)n2)c1 | 0.55 µM
4 | CN(CC(=O)Nc1ccccc1Cl)C(=O)c1cccc(S(=O)(=O)N2CCN(c3ccccc3)CC2)c1 | 3.84 µM
5 | O=C(CSc1nc(-c2ccco2)cc(C(F)(F)F)n1)Nc1ccc(C(=O)N2CCCCC2)cc1 | 2.87 µM
6 | O=C1CC(Sc2nnc(-c3ccccc3O)o2)C(=O)N1c1ccccc1 (stereo not given) | 12.9 µM
7 | CCCCC(=O)NC(c1ccccc1)c1ccc2cccnc2c1O (stereo not given) | 2.35 µM
8 | COc1ccc(CCNC(=O)CCC(=O)N2CCOc3ccc(Cl)cc32)cc1OC | > 70 µM (inactive)
9 | CCOc1cc(C)c(S(=O)(=O)Nc2ccc3cn[nH]c3c2)cc1C | 4.89 µM
10 | COc1cccc(C2CC(c3ccc(C)cc3)=NN2C(=O)c2ccccc2F)c1OC (stereo not given) | 36 µM
11 | CCOc1ccc(Cn2nnc(C(=O)Nc3cc(OC)cc(OC)c3)c2N)cc1 | 5.3 µM
12 | CN(Cc1ccccc1)C(=O)c1cccc(NC(=O)Cc2ccc([N+](=O)[O-])cc2)c1 | 16.8 µM
13 | COc1ccc(C)cc1NS(=O)(=O)c1ccc(-c2cnc(C3CC3)o2)cc1 | 3.76 µM
14 | Clc1cc2cccnc2c2ncccc12 | 4.06 µM
15 | CC(C)Cn1c(N)c(C(=O)COC(=O)C2Cc3ccccc3CN2S(C)(=O)=O)c(=O)n(C)c1=O (stereo not given) | 0.72 µM
16 | Cc1cc(Cl)n2c(nc3ccccc32)c1C#N | 1.85 µM
17 | CCOC(=O)N1CCN(CC(c2ccccc2)c2ccccc2)CC1 | 14.1 µM
18 | Cc1cc(O)c(C(C)C)cc1C1(c2cc(C(C)C)c(O)cc2C)OC(=O)c2ccccc21 | 9.45 µM
19 | Cc1sc2ncnc(N3CCN(S(=O)(=O)c4ccccc4)CC3)c2c1C | 2.3 µM
20 | CC(C)(C)OC(=O)NCCCCCNC(=O)c1nc[nH]c1C(=O)NCc1ccc(CNC(=O)OC(C)(C)C)cc1 | 3.95 µM
21 | COc1ccccc1C(CCNCc1ccc(N(C)C)cc1)c1ccc(OC(C)C)cc1 (stereo not given) | 6.48 µM
22 | CC(C)(C)C(=O)N1CCN(c2ccc(NC(=O)c3ccc([N+](=O)[O-])o3)cc2)CC1 | 2.45 µM
23 | COc1ccc(-n2ncc(Cl)c(Cl)c2=O)cc1 | 3.36 µM
24 | CCc1ccc(CNC(=O)c2cc3c(C)nc4ccccc4c3o2)cc1 | 2.02 µM
25 | NS(=O)(=O)c1ccc(CNC(=S)NC(=O)c2ccco2)cc1 | 22.9 µM

Row | Structure (SMILES) | AC50
26 | CSC1SCC2C(=O)N(C)C(C(C)C)C(=O)OCC(NC(=O)c3cnc4ccccc4n3)C(=O)NC(C)C(=O)N(C)C1C(=O)N(C)C(C(C)C)C(=O)OCC(NC(=O)c1cnc3ccccc3n1)C(=O)NC(C)C(=O)N2C (stereo not given) | < 0.26 µM
27 | CCOc1ccc(S(=O)(=O)N(C)c2ccc(OCC(=O)Nc3nc4ccccc4s3)cc2)cc1 | 2.82 µM
28 | Cc1[nH]nc2ccc(-c3cncc(OC[C@@H](N)Cc4c[nH]c5ccccc45)c3)cc12 | 1.77 µM
29 | Cc1c(CCCl)c(Cl)n2c(nc3ccccc32)c1C#N | 0.912 µM
30 | O=C(OCCN1C(=O)c2cccc3c(N4CCOCC4)ccc(c23)C1=O)c1ccccc1Cl | 3.06 µM
31 | CCCCCCCN(c1ccccc1)[C@@H]1C[C@H]2CCCC(=O)N3CC[C@@H](C1)[C@@H]23 | 11.5 µM
32 | Cc1cc(C2=NNC(=NC3CC3)SC2)c(C)n1-c1ccccc1F | < 0.26 µM
33 | COc1ccc([C@@]23Oc4cc(OC)cc(OC)c4[C@]2(O)[C@H](O)[C@H](C(=O)N(C)C)[C@H]3c2ccccc2)cc1 | < 0.26 µM
34 | COc1ccc(CNC(=O)C(C)n2ccc3cc(S(=O)(=O)N4CCCCCC4)ccc32)cc1 (stereo not given) | 0.518 µM
35 | C=C1C(=O)c2sccc2C(c2ccc(OC)c(OC)c2)C1COC(C)=O (stereo not given) | 0.662 µM
36 | CCCCCCCCOC(=O)c1cc([N+](=O)[O-])c(Sc2ncnc3nc[nH]c23)c([N+](=O)[O-])c1 | 2.81 µM
37 | CC(C)C(=O)NC(c1ccco1)c1ccc2cccnc2c1O (stereo not given) | 2.05 µM
38 | CS(=O)(=O)c1nc(-c2ccc(Br)cc2)cc(-c2ccccc2)c1C#N | 4.72 µM
39 | OCCCNc1cc(-c2ccnc(Nc3cccc(Cl)c3)n2)ccn1 | < 0.26 µM
40 | CS(=O)(=O)c1ccc(Sc2nc3ccccc3s2)c([N+](=O)[O-])c1 | 9.73 µM
41 | Oc1c(C(c2ccccc2Cl)N2CCCC2)ccc2cccnc12 (stereo not given) | 5.77 µM
42 | Cc1nc(-n2[nH]c3c(c2=O)CCCC3)[nH]c(=O)c1Cc1ccccc1 | 4.44 µM
43 | CNC[C@H](CC1CCCCC1)NC[C@H](Cc1ccccc1)NCCC12CC3CC(CC(C3)C1)C2 | 5.51 µM
44 | CCC(=O)OCCNc1cc(Sc2nc3ccccc3[nH]2)c2nonc2c1[N+](=O)[O-] | 1.09 µM
45 | CCOc1cccc(CNCCc2c(C)[nH]c3ccc(OC(F)(F)F)cc23)c1O | 0.611 µM
46 | CCn1c(=NC(=O)CCS(=O)(=O)c2ccccc2)sc2cccc(OC)c21 | 1.28 µM
47 | COCCN(C(=O)COC(=O)C1CCC(C(C)(C)C)CC1)c1c(N)n(Cc2ccccc2)c(=O)[nH]c1=O (stereo not given) | 5.15 µM
48 | Cc1ccc(C(c2cc(Cl)c3cccnc3c2O)N2CCN(C)CC2)cc1 (stereo not given) | 5.54 µM
49 | CCCCOc1ccc(Br)cc1CSC(=N)N | 1.37 µM
50 | C#CCN(C[C@@H]1[C@@H](OC(=O)NCC2CCCCC2)[C@@H](OC(=O)NCC2CCCCC2)Cn2c(=O)ccc(=O)n21)S(=O)(=O)c1ccc(C)cc1 | 2.49 µM
